Measurements published in patent US20230123334A1, “AMINO LIPID COMPOUND, PREPARATION METHOD THEREFOR, AND APPLICATION THEREOF” (SHENZHEN SHENXIN BIOTECHNOLOGY CO., LTD., priority 2020, published 2023).

What follows are molecules tested on HEK293 cells (assay: Preliminary screening as mRNA vectors, EGFP mRNA transfection of HEK293 cells). Settings: HEK293 cells, 96-well plates, EGFP mRNA 50 ng per well; percentage of GFP fluorescent cells relative to total number of cells (Hoechst).
Type: cell-based
Summary of the method: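 HEK293 cells in DMEM plus 10% FBS transfected in 96-well format with 50 ng EGFP mRNA per well; Lipofectamine2000 served as positive control. Read-out is the percentage of GFP-fluorescent cells among total cells, counted by Hoechst nuclear stain.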

Q: For CCCCCCCCCCCCNc1nc(NCCN2CCCC2)nc(N(CCCCCCCCCCCC)CCCCCCCCCCCC)n1 [N12^2N12D3], which “Absolute mRNA transfection efficiency in HEK293 cells” value (“Absolute mRNA transfection efficiency” below) is on record?
A: Its value is 5.8%.

Q: How did the “Absolute mRNA transfection efficiency” value turn out when CCCCCCCCCCCCNc1nc(NCCN2CCCCC2)nc(N(CCCCCCCCCCCC)CCCCCCCCCCCC)n1 [N12^2N12D4] was run?
A: The value was 2.6%.

Q: For CCCCCCCCCCCCNc1nc(NCCN2CCN(C)CC2)nc(N(CCCCCCCCCCCC)CCCCCCCCCCCC)n1 [N12^2N12D5], which “Absolute mRNA transfection efficiency” value is on record?
A: The value was 2.2%.

Q: With CCCCCCCCCCCCNc1nc(NCCCN(C)C)nc(N(CCCCCCCCCCCC)CCCCCCCCCCCC)n1 [N12^2N12D6] as the molecule, how does the “Absolute mRNA transfection efficiency” value read?
A: The value was 1.2%.

Q: For CCCCCCCCCCCCNc1nc(NCCN(CC)CC)nc(N(CCCCCCCCCCCC)CCCCCCCCCCCC)n1 [N12^2N12D7], which “Absolute mRNA transfection efficiency” value is on record?
A: Its value is 2.0%.

Q: How did the “Absolute mRNA transfection efficiency” value turn out when CCCCCCCCCCCCNc1nc(NCCCN2CCOCC2)nc(N(CCCCCCCCCCCC)CCCCCCCCCCCC)n1 [N12^2N12D8] was run?
A: Its value is 3.2%.

Q: CCCCCCCCCCCCNc1nc(NCCCN2CCN(C)CC2)nc(N(CCCCCCCCCCCC)CCCCCCCCCCCC)n1 [N12^2N12D9] was tested. Which “Absolute mRNA transfection efficiency” value did it give?
A: The value was 0.7%.

Q: For CCCCCCCCCCCCNc1nc(NCC2CCN(C)CC2)nc(N(CCCCCCCCCCCC)CCCCCCCCCCCC)n1 [N12^2N12D10], which “Absolute mRNA transfection efficiency” value is on record?
A: Its value is 0.9%.

Q: Which “Absolute mRNA transfection efficiency” value does the source give for CCCCCCCCCCCCCNc1nc(NCCN(C)C)nc(N(CCCCCCCCCCCC)CCCCCCCCCCCC)n1 [N13^2N12D1] here?
A: Its value is 4.7%.

Q: How did the “Absolute mRNA transfection efficiency” value turn out when CCCCCCCCCCCCCNc1nc(NCCN2CCOCC2)nc(N(CCCCCCCCCCCC)CCCCCCCCCCCC)n1 [N13^2N12D2] was run?
A: The value was 0.5%.

Q: Which “Absolute mRNA transfection efficiency” value does the source give for CCCCCCCCCCCCCNc1nc(NCCN2CCCC2)nc(N(CCCCCCCCCCCC)CCCCCCCCCCCC)n1 [N13^2N12D3] here?
A: The value was 7.3%.

Q: How did the “Absolute mRNA transfection efficiency” value turn out when CCCCCCCCCCCCCNc1nc(NCCN2CCCCC2)nc(N(CCCCCCCCCCCC)CCCCCCCCCCCC)n1 [N13^2N12D4] was run?
A: The value was 4.5%.

Q: Which “Absolute mRNA transfection efficiency” value does the source give for CCCCCCCCCCCCCNc1nc(NCCN2CCN(C)CC2)nc(N(CCCCCCCCCCCC)CCCCCCCCCCCC)n1 [N13^2N12D5] here?
A: The value was 4.9%.

Q: How did the “Absolute mRNA transfection efficiency” value turn out when CCCCCCCCCCCCCNc1nc(NCCCN(C)C)nc(N(CCCCCCCCCCCC)CCCCCCCCCCCC)n1 [N13^2N12D6] was run?
A: Its value is 3.9%.

Q: CCCCCCCCCCCCCNc1nc(NCCN(CC)CC)nc(N(CCCCCCCCCCCC)CCCCCCCCCCCC)n1 [N13^2N12D7] was tested. Which “Absolute mRNA transfection efficiency” value did it give?
A: The value was 2.9%.

Q: With CCCCCCCCCCCCCNc1nc(NCCCN2CCOCC2)nc(N(CCCCCCCCCCCC)CCCCCCCCCCCC)n1 [N13^2N12D8] as the molecule, how does the “Absolute mRNA transfection efficiency” value read?
A: Its value is 2.3%.

Q: CCCCCCCCCCCCCNc1nc(NCCCN2CCN(C)CC2)nc(N(CCCCCCCCCCCC)CCCCCCCCCCCC)n1 [N13^2N12D9] was tested. Which “Absolute mRNA transfection efficiency” value did it give?
A: Its value is 2.3%.

Q: Which “Absolute mRNA transfection efficiency” value does the source give for CCCCCCCCCCCCCNc1nc(NCC2CCN(C)CC2)nc(N(CCCCCCCCCCCC)CCCCCCCCCCCC)n1 [N13^2N12D10] here?
A: Its value is 0.0%.

Q: For CCCCCCCCCCCCCCCNc1nc(NCCN(C)C)nc(N(CCCCCCCCCCCC)CCCCCCCCCCCC)n1 [N15^2N12D1], which “Absolute mRNA transfection efficiency” value is on record?
A: Its value is 0.0%.

Q: How did the “Absolute mRNA transfection efficiency” value turn out when CCCCCCCCCCCCCCCNc1nc(NCCN2CCOCC2)nc(N(CCCCCCCCCCCC)CCCCCCCCCCCC)n1 [N15^2N12D2] was run?
A: The value was 0.0%.

Q: Which “Absolute mRNA transfection efficiency” value does the source give for CCCCCCCCCCCCCCCNc1nc(NCCN2CCCC2)nc(N(CCCCCCCCCCCC)CCCCCCCCCCCC)n1 [N15^2N12D3] here?
A: The value was 0.0%.

These molecules were tested on HEK293 cells (assay: Preliminary screening as DNA vectors, GFP transfection of HEK293 cells). Settings: HEK293 cells; lipid/DOPE liposome with 75 ng plasmid DNA (psin-EGFP-IRES-Puro); number of cells expressing GFP divided by total number of nuclei (Hoechst).
Type: cell-based
Summary of the method: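 HEK293 cells in DMEM/10% FBS transfected with 75 ng EGFP plasmid per well complexed with amino lipid/DOPE liposomes in pH 5.6 sodium acetate. Hoechst nuclear stain added 20-24 h post-transfection, then cells cultured another 20-24 h. Confocal imaging gives GFP-positive cells as % of total nuclei.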

Q: With CCCCCCCCCCCCNc1nc(NCCN2CCCC2)nc(N(CCCCCCCCCCCC)CCCCCCCCCCCC)n1 [N12^2N12D3] as the molecule, how does the “Absolute DNA transfection efficiency in HEK293 cells” value (shortened to “Absolute DNA transfection efficiency”) read?
A: The value was 3.2%.

Q: How did the “Absolute DNA transfection efficiency” value turn out when CCCCCCCCCCCCNc1nc(NCCN2CCCCC2)nc(N(CCCCCCCCCCCC)CCCCCCCCCCCC)n1 [N12^2N12D4] was run?
A: The value was 2.5%.

Q: CCCCCCCCCCCCNc1nc(NCCN2CCN(C)CC2)nc(N(CCCCCCCCCCCC)CCCCCCCCCCCC)n1 [N12^2N12D5] was tested. Which “Absolute DNA transfection efficiency” value did it give?
A: The value was 0.5%.

Q: CCCCCCCCCCCCNc1nc(NCCCN(C)C)nc(N(CCCCCCCCCCCC)CCCCCCCCCCCC)n1 [N12^2N12D6] was tested. Which “Absolute DNA transfection efficiency” value did it give?
A: The value was 3.6%.

Q: For CCCCCCCCCCCCNc1nc(NCCN(CC)CC)nc(N(CCCCCCCCCCCC)CCCCCCCCCCCC)n1 [N12^2N12D7], which “Absolute DNA transfection efficiency” value is on record?
A: The value was 2.2%.

Q: CCCCCCCCCCCCNc1nc(NCCCN2CCOCC2)nc(N(CCCCCCCCCCCC)CCCCCCCCCCCC)n1 [N12^2N12D8] was tested. Which “Absolute DNA transfection efficiency” value did it give?
A: The value was 0.6%.

Q: Which “Absolute DNA transfection efficiency” value does the source give for CCCCCCCCCCCCNc1nc(NCCCN2CCN(C)CC2)nc(N(CCCCCCCCCCCC)CCCCCCCCCCCC)n1 [N12^2N12D9] here?
A: The value was 3.0%.

Q: With CCCCCCCCCCCCNc1nc(NCC2CCN(C)CC2)nc(N(CCCCCCCCCCCC)CCCCCCCCCCCC)n1 [N12^2N12D10] as the molecule, how does the “Absolute DNA transfection efficiency” value read?
A: Its value is 0.7%.

Q: Which “Absolute DNA transfection efficiency” value does the source give for CCCCCCCCCCCCCNc1nc(NCCN(C)C)nc(N(CCCCCCCCCCCC)CCCCCCCCCCCC)n1 [N13^2N12D1] here?
A: The value was 1.2%.

Q: Which “Absolute DNA transfection efficiency” value does the source give for CCCCCCCCCCCCCNc1nc(NCCN2CCOCC2)nc(N(CCCCCCCCCCCC)CCCCCCCCCCCC)n1 [N13^2N12D2] here?
A: The value was 0.1%.

Q: How did the “Absolute DNA transfection efficiency” value turn out when CCCCCCCCCCCCCNc1nc(NCCN2CCCC2)nc(N(CCCCCCCCCCCC)CCCCCCCCCCCC)n1 [N13^2N12D3] was run?
A: Its value is 0.6%.

Q: CCCCCCCCCCCCCNc1nc(NCCN2CCCCC2)nc(N(CCCCCCCCCCCC)CCCCCCCCCCCC)n1 [N13^2N12D4] was tested. Which “Absolute DNA transfection efficiency” value did it give?
A: Its value is 0.8%.

Q: With CCCCCCCCCCCCCNc1nc(NCCN2CCN(C)CC2)nc(N(CCCCCCCCCCCC)CCCCCCCCCCCC)n1 [N13^2N12D5] as the molecule, how does the “Absolute DNA transfection efficiency” value read?
A: The value was 0.0%.

Q: How did the “Absolute DNA transfection efficiency” value turn out when CCCCCCCCCCCCCNc1nc(NCCCN(C)C)nc(N(CCCCCCCCCCCC)CCCCCCCCCCCC)n1 [N13^2N12D6] was run?
A: The value was 1.3%.

Q: How did the “Absolute DNA transfection efficiency” value turn out when CCCCCCCCCCCCCNc1nc(NCCN(CC)CC)nc(N(CCCCCCCCCCCC)CCCCCCCCCCCC)n1 [N13^2N12D7] was run?
A: The value was 0.2%.

Q: How did the “Absolute DNA transfection efficiency” value turn out when CCCCCCCCCCCCCNc1nc(NCCCN2CCOCC2)nc(N(CCCCCCCCCCCC)CCCCCCCCCCCC)n1 [N13^2N12D8] was run?
A: The value was 0.0%.

Q: CCCCCCCCCCCCCNc1nc(NCCCN2CCN(C)CC2)nc(N(CCCCCCCCCCCC)CCCCCCCCCCCC)n1 [N13^2N12D9] was tested. Which “Absolute DNA transfection efficiency” value did it give?
A: The value was 1.7%.

Q: How did the “Absolute DNA transfection efficiency” value turn out when CCCCCCCCCCCCCNc1nc(NCC2CCN(C)CC2)nc(N(CCCCCCCCCCCC)CCCCCCCCCCCC)n1 [N13^2N12D10] was run?
A: Its value is 0.0%.

Q: CCCCCCCCCCCCCCCNc1nc(NCCN(C)C)nc(N(CCCCCCCCCCCC)CCCCCCCCCCCC)n1 [N15^2N12D1] was tested. Which “Absolute DNA transfection efficiency” value did it give?
A: The value was 0.9%.

Q: Which “Absolute DNA transfection efficiency” value does the source give for CCCCCCCCCCCCCCCNc1nc(NCCN2CCOCC2)nc(N(CCCCCCCCCCCC)CCCCCCCCCCCC)n1 [N15^2N12D2] here?
A: Its value is 0.5%.

Q: With CCCCCCCCCCCCCCCNc1nc(NCCN2CCCC2)nc(N(CCCCCCCCCCCC)CCCCCCCCCCCC)n1 [N15^2N12D3] as the molecule, how does the “Absolute DNA transfection efficiency” value read?
A: The value was 2.4%.
